In patent US7294648B2, “Anthranyl derivatives having an anticholecystokinin activity (anti-cck-1), a process for their preparation, and pharmaceutical use thereof” (Rottapharm S.p.A., priority 2002, dated 2007):
Read-outs that look alike come from different tables or passages of the source.

How the values were obtained:
CCK-1 receptors = molecular target: T1, CCK-1 receptors (Rattus norvegicus, UniProt P30551); experiment: Inhibition of binding of [125I]-BH-CCK-8 to isolated rat pancreatic acini; settings: for affinity for the CCK-1 receptors of the pancreatic acini of rat, in words: summary of Table 2
T1 construct: The pancreatic acini obtained from the outbred male rat pancreas of the Sprague Dawley strain; from tissue; host or cells: isolated pancreatic acini of male Sprague Dawley rats
T1 sequence (P30551 1-444): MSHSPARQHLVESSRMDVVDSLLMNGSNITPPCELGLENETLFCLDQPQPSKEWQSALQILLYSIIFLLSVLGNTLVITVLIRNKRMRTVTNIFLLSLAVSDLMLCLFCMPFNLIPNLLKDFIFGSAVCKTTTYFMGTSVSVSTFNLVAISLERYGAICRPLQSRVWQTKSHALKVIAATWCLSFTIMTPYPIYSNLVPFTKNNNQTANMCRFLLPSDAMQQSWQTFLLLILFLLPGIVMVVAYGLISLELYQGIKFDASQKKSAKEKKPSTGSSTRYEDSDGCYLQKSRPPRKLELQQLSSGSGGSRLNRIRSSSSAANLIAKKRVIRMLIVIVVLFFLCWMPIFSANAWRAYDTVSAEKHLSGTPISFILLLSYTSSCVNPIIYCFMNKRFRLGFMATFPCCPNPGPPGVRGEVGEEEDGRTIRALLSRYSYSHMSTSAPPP
Protocol: The pancreatic acini obtained from the outbred male rat pancreas of the Sprague Dawley strain, were incubated in the presence of radioactive tracers and the compound studied for 30 minutes at 37° C. After having discarded the supernatant, the radioactivity associated with the pellet was determined with a liquid scintillator. The specific binding was determined as the difference between the binding in the absence and in the presence of CCK-8, 1.10^−6M. […] The values of IC50 reported were calculated with the […] of a set of at least 3 experiences for each compound studied.

[1] = molecular target: T2, CCK-1 (guinea pig gall bladder) (Cavia porcellus, UniProt Q63931); experiment: Inhibition of the in vitro CCK-8 induced contraction of guinea pig gall bladder; type: cell-based; settings: CCK-8 5 ng/ml; average of at least two experiments, 6-8 concentrations
T2 construct: A guinea pig gall bladder stimulated in vitro by CCK-8; from tissue; host or cells: isolated guinea pig gall bladder
T2 sequence (Q63931 1-430): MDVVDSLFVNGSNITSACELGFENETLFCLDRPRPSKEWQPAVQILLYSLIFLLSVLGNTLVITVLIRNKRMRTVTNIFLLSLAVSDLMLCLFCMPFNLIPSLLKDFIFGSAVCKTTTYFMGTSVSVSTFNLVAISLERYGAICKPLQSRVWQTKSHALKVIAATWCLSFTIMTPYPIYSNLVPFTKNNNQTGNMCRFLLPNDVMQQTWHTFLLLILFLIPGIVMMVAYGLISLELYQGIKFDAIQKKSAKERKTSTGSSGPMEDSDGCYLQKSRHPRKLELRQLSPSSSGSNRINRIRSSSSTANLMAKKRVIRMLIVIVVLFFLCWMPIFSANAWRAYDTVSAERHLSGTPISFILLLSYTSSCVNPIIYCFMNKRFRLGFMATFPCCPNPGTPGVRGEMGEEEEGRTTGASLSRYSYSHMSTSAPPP
Text: A guinea pig gall bladder stimulated in vitro by CCK-8 according to the method described by Makovec et al. was used as an experimental model. [Arzneim. Forsch. Drug Res. 35 (7), 1048 (1985)]. The results thus obtained are illustrated in the following Table 4 in which the values of IC50 (moles/litre) are reported.

CCK-2 receptor [2] = molecular target: T3, CCK-2 receptor (Cavia porcellus, UniProt H0VZC5); experiment: Inhibition of the binding of [125I]-BH-CCK-8 to the cortical membrane of guinea pigs; set-up: species or system guinea pig; settings: 120 minutes at 25° C.; 25 pM marked binder; at least 3 tests
T3 construct: The incubation of the cerebral membranes together with the radioactive tracers and the compounds under study; from tissue; host or cells: cerebral cortex membranes of male albino Hartley guinea pigs
T3 sequence (H0VZC5 1-426): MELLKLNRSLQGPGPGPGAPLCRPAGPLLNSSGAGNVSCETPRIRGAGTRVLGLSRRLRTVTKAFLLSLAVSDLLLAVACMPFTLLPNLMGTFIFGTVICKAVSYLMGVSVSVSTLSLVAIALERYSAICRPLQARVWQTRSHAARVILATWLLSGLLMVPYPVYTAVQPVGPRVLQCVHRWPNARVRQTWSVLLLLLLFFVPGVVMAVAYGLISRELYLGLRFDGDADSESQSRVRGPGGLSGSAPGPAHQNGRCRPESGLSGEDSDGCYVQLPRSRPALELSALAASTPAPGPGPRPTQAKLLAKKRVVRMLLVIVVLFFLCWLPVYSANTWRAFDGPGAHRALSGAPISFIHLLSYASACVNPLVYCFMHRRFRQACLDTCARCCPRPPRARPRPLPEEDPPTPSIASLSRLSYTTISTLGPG
Protocol: (§1) For this purpose binding tests were performed on cerebral cortex of male albino guinea pigs outbred from the Hartley strain, using as marked binder the [^125I]-BH-CCK-8 sulphate, according to the procedure described by Makovec F. [J. Med. Chem. 35, (1992),28].
(§2) The incubation of the cerebral membranes together with the radioactive tracers and the compounds under study was effected on multi-well plates for 120 minutes at 25° C. Each well contained membrane corresponding to about 0.5 mg of proteins/ml and 25 pM of marked binder in a total volume of 250 micro litres. The specific binding was determined as the difference between the binding in the absence and in the presence of CCK-8, 1.10^−6M. At the end of the incubation a rapid filtration of the plate was performed under vacuum and the radioactivity of the individual filters extracted from the wells was measured with a γ-emission counter. The results obtained are shown in Table 3, in which the tested compounds are indicated, the IC50 calculated with the regression method on a set of at least 3 tests for each compound studied and an index derived from the ratio of the affinity obtained for the two types of receptor CCK-2 and CCK-1.

CCK-2 receptor [3] = experiment: as above; set-up: species or system guinea pig; settings: IC50 CCK-2 (guinea pig cortex) / IC50 CCK-1 (rat pancreatic acini, Table 2)
Protocol: as §1, §2

[4] = 30 minutes at 37° C., at least 3 experiments, read-out: IC50, inhibition of binding of [125I]-BH-CCK-8 to isolated rat pancreatic acini

Row | Compound | IC50 (CCK-1 receptors; [4]) [nM] | affinity for the CCK-1 receptors of the pancreatic acini of rat, in words (CCK-1 receptors) | IC50 [1] [nM] | IC50 (CCK-2 receptor [2]) [nM] | index derived from the ratio of the affinity obtained for the two types of receptor CCK-2 and CCK-1 (CCK-2 receptor [3]) | IC50 (CCK-1 receptors) [nM]
1 | Cc1ccccc1CCC(NC(=O)c1ccccc1NC(=O)c1cc2ccccc2[nH]1)C(=O)O (centres unmarked) [Compound 25] | 7 | nanomolar level | 8 | > 30000 | >4286 | –
2 | O=C(Nc1ccccc1C(=O)NC(CCc1ccccc1)C(=O)O)c1cc2ccccc2[nH]1 (centres unmarked) [Compound 20] | – | – | 35 | 2220 | 158.6 | 14
3 | O=C(Nc1ccccc1C(=O)NC(CCc1ccccc1)C(=O)O)c1cc2cc(F)ccc2[nH]1 (centres unmarked) [Compound 23] | 7 | nanomolar level | 15 | 10800 | 1542.9 | –
4 | O=C(Nc1ccccc1C(=O)N[C@H](CCc1ccccc1)C(=O)O)c1cc2ccccc2[nH]1 [Compound 21] | – | nanomolar level | 20 | 3800 | 422.2 | 9

Now from value to compound, other results behind:

Row | IC50 (CCK-1 receptors; [4]) [nM] | affinity for the CCK-1 receptors of the pancreatic acini of rat, in words (CCK-1 receptors) | IC50 [1] [nM] | IC50 (CCK-2 receptor [2]) [nM] | index derived from the ratio of the affinity obtained for the two types of receptor CCK-2 and CCK-1 (CCK-2 receptor [3]) | Compound | IC50 (CCK-1 receptors) [nM]
5 | 8 | nanomolar level | 30 | 3500 | 437.5 | COc1ccccc1CCC(NC(=O)c1ccccc1NC(=O)c1cc2ccccc2[nH]1)C(=O)O (centres unmarked) [Compound 30] | –
6 | 9 | nanomolar level | 43 | 5150 | 572.2 | Cc1ccccc1CCC(NC(=O)c1ccccc1NC(=O)c1cc2cc(F)ccc2[nH]1)C(=O)O (centres unmarked) [Compound 26] | –
